Tests used:
[1] = wn = mass fraction of the nth substance listed; conditions: 101 kPa, Liquid
[2] = 101 kPa, Liquid

OCCC1CCCCN1 (stereo not given) [2-(2-hydroxyethyl)piperidine] + O
[1]
Conditions | mass density [kg/m3] | viscosity [mPa·s]
288 K, w1 = 0.05 | 1001.8 | 1.364
288 K, w1 = 0.1 | 1004.7 | 1.775
288 K, w1 = 0.15 | 1005 | 2.313
288 K, w1 = 0.2 | 1011.1 | 2.935
288 K, w1 = 0.25 | 1014.5 | 3.921
288 K, w1 = 0.3 | 1017.3 | 5.218
293 K, w1 = 0.05 | 1000.1 | 1.298
293 K, w1 = 0.1 | 1002.3 | 1.655
293 K, w1 = 0.15 | 1003.2 | 2.097
293 K, w1 = 0.2 | 1008.3 | 2.696
293 K, w1 = 0.25 | 1012.5 | 3.506
293 K, w1 = 0.3 | 1014.9 | 4.697
298 K, w1 = 0.05 | 998.9 | 1.116
298 K, w1 = 0.1 | 1001.6 | 1.423
298 K, w1 = 0.15 | 1002.4 | 1.762
298 K, w1 = 0.2 | 1005.9 | 2.289
298 K, w1 = 0.25 | 1010.1 | 2.968
298 K, w1 = 0.3 | 1012.7 | 3.858
303 K, w1 = 0.05 | 997.6 | 1.064
303 K, w1 = 0.1 | 999.6 | 1.316
303 K, w1 = 0.15 | 1001.4 | 1.599
303 K, w1 = 0.2 | 1003.7 | 2.037
303 K, w1 = 0.25 | 1007.5 | 2.603
303 K, w1 = 0.3 | 1009.6 | 3.429
308 K, w1 = 0.05 | 996 | 0.959
308 K, w1 = 0.1 | 997.4 | 1.216
308 K, w1 = 0.15 | 998.9 | 1.489
308 K, w1 = 0.2 | 1001.7 | 1.869
308 K, w1 = 0.25 | 1003.1 | 2.382
308 K, w1 = 0.3 | 1006.4 | 3.069
313 K, w1 = 0.05 | 994.3 | 0.828
313 K, w1 = 0.1 | 996.5 | 1.015
313 K, w1 = 0.15 | 997.9 | 1.253
313 K, w1 = 0.2 | 999.3 | 1.511
313 K, w1 = 0.25 | 999.9 | 1.938
313 K, w1 = 0.3 | 1001.8 | 2.468
318 K, w1 = 0.05 | 992.4 | 0.776
318 K, w1 = 0.1 | 994.2 | 0.965
318 K, w1 = 0.15 | 995.5 | 1.156
318 K, w1 = 0.2 | 996.7 | 1.429
318 K, w1 = 0.25 | 998.8 | 1.795
318 K, w1 = 0.3 | 1000.2 | 2.229
323 K, w1 = 0.05 | 990.3 | 0.684
323 K, w1 = 0.1 | 991.7 | 0.828
323 K, w1 = 0.15 | 993.5 | 0.995
323 K, w1 = 0.2 | 994.7 | 1.193
323 K, w1 = 0.25 | 996.1 | 1.523
323 K, w1 = 0.3 | 997.3 | 1.891
328 K, w1 = 0.05 | 987.7 | 0.651
328 K, w1 = 0.1 | 988.7 | 0.778
328 K, w1 = 0.15 | 990.6 | 0.975
328 K, w1 = 0.2 | 991.9 | 1.173
328 K, w1 = 0.25 | 993 | 1.39
328 K, w1 = 0.3 | 994.3 | 1.769
333 K, w1 = 0.05 | 983.5 | 0.585
333 K, w1 = 0.1 | 985.9 | 0.695
333 K, w1 = 0.15 | 987.9 | 0.837
333 K, w1 = 0.2 | 988.7 | 1.013
333 K, w1 = 0.25 | 990.3 | 1.229
333 K, w1 = 0.3 | 991.3 | 1.536

CN(CCO)CCO [N-methyldiethanolamine]
[2]
Conditions | mass density [kg/m3] | viscosity [mPa·s]
288 K | 1044.1 | 142.02
313 K | 1027.2 | 34.73
333 K | 1012.6 | 14.66

CN(CCO)CCO [N-methyldiethanolamine] + O
[1]
Conditions | mass density, w1 = 0.1 [kg/m3] | mass density, w1 = 0.2 [kg/m3] | mass density, w1 = 0.3 [kg/m3] | mass density, w1 = 1 [kg/m3] | viscosity, w1 = 0.1 [mPa·s] | viscosity, w1 = 0.2 [mPa·s] | viscosity, w1 = 0.3 [mPa·s] | viscosity, w1 = 1 [mPa·s]
288 K | 1007.9 | 1016.7 | 1030.7 | 1044.1 | 1.703 | 2.624 | 4.399 | 142.02
313 K | 1000.4 | 1008.6 | 1019.3 | 1027.2 | 0.899 | 1.305 | 1.929 | 34.73
333 K | 990.2 | 999.5 | 1007.1 | 1012.6 | 0.63 | 0.86 | 1.218 | 14.66

— the NIST ThermoML archive (doi:10.1021/je060108f)
